Experiments:
[1] = test system: human prostate cancer LNCaP cells; assay: Cytotoxic action on cancer cells (WST-8, 96 hr); assay type: cell-based; details: Homo sapiens, LNCaP, 96 h, read-out: LNCaP cytotoxic activity: IC50
Protocol: The cytotoxic action of the compound of the present invention against human cancer cells was evaluated in vitro. In this experiment, (+)-JQ1 (Nature volume 468, pages 1067-1073 (23 Dec. 2010)) known to have an inhibitory activity on the binding of BRD4 protein and a ligand therefor was used as a positive control drug. Respective cells were suspended in 10% FBS/RPMI1640, seeded in a 96 well plate and cultured at 5% CO2, 37° C. overnight. A test compound dissolved in DMSO was diluted with 10% FBS/RPMI1640 and added and the cells were further cultured for 96 hr. After culturing, the viable cell number was measured using a cell number measurement WST-8 kit (Kishida Chemical Co., Ltd.). As a control, the measurement was performed under conditions free of the test compound. The cytotoxic activity of the compound of the present invention against human prostate cancer LNCaP cells is shown in IC50 value in Table 1. […] It was calculated from the straight line connecting the cell survival rate at two points enclosing the 50% cell survival rate and the compound concentration. In addition, the cytotoxic activity against respective cancer cells of human acute myeloid leukemia MV-4-11 cell, human chronic myeloid leukemia K562 cell, human multiple myeloma MM.1S cell, human diffuse large B-cell lymphoma SU-DHL-6 cell, human T-cell leukemia Jurkat cells, human Burkitt lymphoma Raji cell, human castration-resistant prostate cancer PC-3 cell, human ovarian cancer A2780 cell, human bladder cancer 5637 cell, human breast cancer ZR-75-1 cell, human triple negative breast cancer MDA-MB-231 cell, human uterine sarcoma MES-SA cell, human gastric cancer SNU-16 cell, human non-small cell lung cancer NCI-H1975 cell, human small cell lung cancer NCI-H82 cell, human large cell lung cancer NCI-H460 cell, human colorectal cancer HCT116 cell, human glioma U-87 MG cell, human pancreatic cancer AsPC-1 cell, and human liver cancer Hep G2 cell is shown in IC50 value in Table 2.

[2] = target: BRD4 protein (Homo sapiens (Human), UniProt O60885); assay: BRD4 protein degradation inducing action in cancer cells (immunofluorescence, Operetta); assay type: cell-based; details: LNCaP cells, 6 hr treatment, fluorescence intensity
Protocol: The degradation inducing action of the compound of the present invention on BRD4 protein in cancer cells was evaluated in vitro using human prostate cancer LNCaP cells. LNCaP cells were suspended in 10% FBS/RPMI1640, seeded in a 96 well Cell carrier plate (Perkin Elmer) and cultured at 5% CO2, 37° C. overnight. A test compound dissolved in DMSO was diluted with 10% FBS/RPMI1640 and added and the cells were further cultured for 6 hr. After culturing, the cells were immobilized with 4% para-formaldehyde/PBS and further subjected to a permeation treatment with 0.25% Triton X-100/PBS. Thereafter, the cells were blocked with 10% BSA/PBS, a solution containing Anti-Brd4 antibody (Abcam) or Anti-BRD4 (Sigma-Aldrich) as the primary antibody was added and the cells were incubated at 4° C. overnight. Thereafter, as the secondary antibody, a solution containing secondary antibody A shown below was added to Example compounds 1-190, 223 and 224, and a solution containing secondary antibody B shown below was added to Example compounds 191-222, and 0.5 μg/mL Hoechst 33342 (Sigma-Aldrich) and 14 μM Acti-Stain 555 Fluorescent Phalloidin (Cytoskeleton) were further added. After incubation for 1 hr, BRD4 protein amount was measured by Operetta (Perkin Elmer) as fluorescence intensity.
• Anti-Rabbit IgG(H+L), F(ab′)2 Fragment (Alexa Fluor 488 Conjugate) (Cell Signaling Technology), fluorescence intensity was measured at excitation: 495 nm, emission: 519 nm. Secondary Antibody B • Goat anti-Rabbit IgG(H+L) Cross-Adserbed Secondary Antibody (Alexa Fluor 546) (Thermo Fisher Scientific) fluorescence intensity was measured at excitation: 560 nm, emission: 572 nm.
The BRD4 protein degradation inducing activity of the compound of the present invention in LNCaP cells is shown in DC50 value in Table 3. The DC50 value is a concentration of the compound showing 50% fluorescence intensity when the fluorescence intensity thereof under compound untreated condition is 100%. It was calculated from the straight line connecting the fluorescence intensity at two points enclosing the 50% fluorescence intensity and the compound concentration.

| Compound | DC50 [2] [pM] | IC50 [1] [pM] |
| --- | --- | --- |
| COC(=O)C[C@@H]1N=C(c2ccc(-c3ccc(OCC(=O)N[C@H](C(=O)N4C[C@H](O)C[C@H]4C(=O)N[C@@H](C)c4ccc(-c5scnc5C)cc4)C(C)(C)C)c(CO)c3)cc2)c2c(sc(C)c2C)-n2c(C)nnc21 [Example 154, methyl [(6S)-4-{3′-(hydroxymethyl)-4′-[2-({(2S)-1-[(2S,4R)-4-hydroxy-2-({(1S)-1-[4-(4-methyl-1,3-thiazol-5-yl)phenyl]ethyl}carbamoyl)pyrrolidin-1-yl]-3,3-dimethyl-1-oxobutan-2-yl}amino)-2-oxoethoxy][1,1′-biphenyl]-4-yl}-2,3,9-trimethyl-6H-thieno[3,2-f][1,2,4]triazolo[4,3-a][1,4]diazepin-6-yl]acetate] | 420 | 450 |
| COC(=O)C[C@@H]1N=C(c2ccc(-c3ccc(OCC(=O)N[C@H](C(=O)N4C[C@H](O)C[C@H]4C(=O)N[C@@H](C)c4ccc(-c5scnc5C)cc4)C(C)(C)C)nc3)cc2)c2c(sc(C)c2C)-n2c(C)nnc21 [Example 63, methyl [(6S)-4-(4-{6-[2-({(2S)-1-[(2S,4R)-4-hydroxy-2-({(1S)-1-[4-(4-methyl-1,3-thiazol-5-yl)phenyl]ethyl}carbamoyl)pyrrolidin-1-yl]-3,3-dimethyl-1-oxobutan-2-yl}amino)-2-oxoethoxy]pyridin-3-yl}phenyl)-2,3,9-trimethyl-6H-thieno[3,2-f][1,2,4]triazolo[4,3-a][1,4]diazepin-6-yl]acetate] | 110 | 37 |
| COC(=O)C[C@@H]1N=C(c2ccc(-c3ccccc3OCC(=O)N[C@H](C(=O)N3C[C@H](O)C[C@H]3C(=O)N[C@@H](C)c3ccc(-c4scnc4C)cc3)C(C)(C)C)cc2)c2c(sc(C)c2C)-n2c(C)nnc21 [Example 178, methyl [(6S)-4-{2′-[2-({(2S)-1-[(2S,4R)-4-hydroxy-2-({(1S)-1-[4-(4-methyl-1,3-thiazol-5-yl)phenyl]ethyl}carbamoyl)pyrrolidin-1-yl]-3,3-dimethyl-1-oxobutan-2-yl}amino)-2-oxoethoxy][1,1′-biphenyl]-4-yl}-2,3,9-trimethyl-6H-thieno[3,2-f][1,2,4]triazolo[4,3-a][1,4]diazepin-6-yl]acetate] | 800 | 680 |

Now from value to compound, other results behind:

| DC50 [2] [pM] | Compound | IC50 [1] [pM] |
| --- | --- | --- |
| 13 | COC(=O)C[C@@H]1N=C(c2ccc(-c3ccc(COCC(=O)N[C@H](C(=O)N4C[C@H](O)C[C@H]4C(=O)N[C@@H](C)c4ccc(-c5scnc5C)cc4)C(C)(C)C)cc3)cc2)c2c(sc(C)c2C)-n2c(C)nnc21 [Example 39, methyl [(6S)-4-(4′-{[2-({(2S)-1-[(2S,4R)-4-hydroxy-2-({(1S)-1-[4-(4-methyl-1,3-thiazol-5-yl)phenyl]ethyl}carbamoyl)pyrrolidin-1-yl]-3,3-dimethyl-1-oxobutan-2-yl}amino)-2-oxoethoxy]methyl}[1,1′-biphenyl]-4-yl)-2,3,9-trimethyl-6H-thieno[3,2-f][1,2,4]triazolo[4,3-a] [1,4]diazepin-6-yl]acetate] | 71 |
| 23 | COC(=O)C[C@@H]1N=C(c2ccc(-c3ccc(CCC(=O)N[C@H](C(=O)N4C[C@H](O)C[C@H]4C(=O)N[C@@H](C)c4ccc(-c5scnc5C)cc4)C(C)(C)C)cc3)cc2)c2c(sc(C)c2C)-n2c(C)nnc21 [Example 28, methyl [(6S)-4-{4′-[3-({(2S)-1-[(2S,4R)-4-hydroxy-2-({(1S)-1-[4-(4-methyl-1,3-thiazol-5-yl)phenyl]ethyl}carbamoyl)pyrrolidin-1-yl]-3,3-dimethyl-1-oxobutan-2-yl}amino)-3-oxopropyl][1,1′-biphenyl]-4-yl}-2,3,9-trimethyl-6H-thieno[3,2-f][1,2,4]triazolo[4,3-a][1,4]diazepin-6-yl]acetate] | 44 |
